Assay results as given in the CheMixHub viscosity set.

Assay: xn = mol fraction of the nth substance listed

C=CC(=O)OCCCC + CC#N
viscosity [mPa·s], 100 kPa
Details	293.15 K	298.15 K	303.15 K	308.15 K	313.15 K	318.15 K
x2 = 0.061	0.8625	0.8036	0.7492	0.6997	0.6541	0.611
x2 = 0.1168	0.8292	0.7725	0.7202	0.6725	0.6285	0.587
x2 = 0.1832	0.7901	0.7361	0.6864	0.641	0.5992	0.5596
x2 = 0.2571	0.7473	0.6964	0.6497	0.607	0.5677	0.5304
x2 = 0.3094	0.7174	0.6687	0.6241	0.5834	0.5459	0.5103
x2 = 0.3825	0.6761	0.6306	0.589	0.551	0.516	0.4829
x2 = 0.4563	0.6351	0.5928	0.5542	0.519	0.4866	0.4558
x2 = 0.5282	0.5958	0.5566	0.521	0.4885	0.4585	0.4301
x2 = 0.5779	0.569	0.532	0.4985	0.4678	0.4395	0.4126
x2 = 0.6483	0.5319	0.4979	0.4672	0.4391	0.4132	0.3886
x2 = 0.7299	0.49	0.4596	0.4322	0.4071	0.384	0.362
x2 = 0.8143	0.4484	0.4216	0.3977	0.3758	0.3556	0.3364
x2 = 0.9182	0.3998	0.3778	0.3584	0.3405	0.3241	0.3086

CC(C)CO + CC(C)O
viscosity [mPa·s], 101 kPa
Details	x2 = 0.2	x2 = 0.4	x2 = 0.6	x2 = 0.8
293.15 K	3.536	3.163	2.856	2.597
313.15 K	1.923	1.742	1.586	1.449

COC(N)=O + CCOC(N)=O
101.33 kPa, x2 = 0.5
Details	viscosity [mPa·s]
298.15 K	7.716
313.15 K	4.41

CC(C)(C)c1ccccc1 + CCCCCCCCCCCC
viscosity [mPa·s], 102 kPa
Details	x1 = 0.1017	x1 = 0.2009	x1 = 0.2995	x1 = 0.4002	x1 = 0.5001	x1 = 0.5979	x1 = 0.699	x1 = 0.8	x1 = 0.9006
293.15 K	1.43	1.37	1.32	1.27	1.22	1.18	1.16	1.14	1.13
303.15 K	1.2	1.16	1.12	1.08	1.05	1.02	0.998	0.982	0.975
313.15 K	1.03	0.998	0.971	0.942	0.916	0.895	0.874	0.859	0.854
323.15 K	0.9	0.872	0.846	0.825	0.804	0.787	0.77	0.758	0.752

Cc1ccccc1O + Oc1ccccc1
298.15 K, 101 kPa
Details	viscosity [mPa·s]
x2 = 0.1343	7.835
x2 = 0.1973	7.93
x2 = 0.3	8.099
x2 = 0.3881	8.235
x2 = 0.491	8.404
x2 = 0.6283	8.565
x2 = 0.6927	8.645
x2 = 0.7579	8.731
x2 = 0.8003	8.757
x2 = 0.873	8.825
x2 = 0.901	8.851
